Results: patent US9326973B2, “Hepatitis C virus inhibitors” (priority 2012, dated 2016)
Where two headings read alike, the source gives them in different places.

Tested on: HCV replicon, genotype-1a variant with glutamine 30 changed to glutamate in the NS5A protein
Experiment: microbe, parasite or virus in culture
Assay type: cell-based, HCV genotype 1a
Conditions: for Fold-Synergistic 1a (Q30E): HCV replicon genotype 1a Q30E (Q→E) variant, test compound titrated with an NS5A-targeting compound (BMS-790052 fixed at 200 nM), ranking of synergist activity; for EC50: Hepatitis C virus, genotype 1a Q30E replicon
Excerpt: The NS5A synergistic inhibitory effect of test compounds can be determined using various amounts of an NS5A-targeting compound with titration of a second compound of interest. […] In one embodiment, the HCV genotype strain can be genotype 1a containing a change at amino acid 30 of the NS5A protein consisting of glutamine to glutamate. The test compound can be chosen from compounds listed above or from others present in the literature.

SMILES	Fold-Synergistic 1a (Q30E) [fold]	other results
CC(C)C(N[S+]([O-])C(C)(C)C)c1ncc(-c2ccc(-c3ccc(-c4cnc([C@@H](N[S+]([O-])C(C)(C)C)C(C)C)[nH]4)cc3)cc2)[nH]1 (single isomer, unassigned) [Compound Y-61]	<10	–
COC(=O)N[C@H](C(=O)N1CCC[C@H]1c1nc(-c2ccc(-c3ccc(-c4c[nH]c([C@@H]5CCCN5C(=O)[C@@H](NC(=O)OC)C(C)C)n4)cc3)cc2)c[nH]1)C(C)C [BMS-790052, reference compound]	–	reciprocal synergistic inhibitory effect for the combination: ~100 fold; EC50 (P-55 fixed at 200 nM, read-out: EC50 of BMS-790052 in the presence of a fixed amount of P-55): ~2 nM; EC50 (compound alone, read-out: EC50, titrated singly): ~200 nM
CC(C)(C)[C@H](NC(=O)C1(C2(O)CCOCC2)CCC1)c1ncc(-c2ccc(-c3ccc(-c4cnc([C@@H](NC(=O)C5(C6(O)CCOCC6)CCC5)C(C)(C)C)[nH]4)cc3)cc2)[nH]1 [Compound B84]	>100	–
CN(C)C(=N[C@H](c1ncc(-c2ccc(-c3ccc(-c4cnc([C@@H](NC(=O)C5(C6(O)CCOCC6)CCC5)C(C)(C)C)[nH]4)cc3)cc2)[nH]1)C(C)(C)C)N(C)C [Compound B85]	>10	–
CC(C)(C)[C@H](NCC1CCCCC1)c1nc(-c2ccc(-c3ccc(-c4c[nH]c([C@@H](NCC5CCCCC5)C(C)(C)C)n4)cc3)cc2)c[nH]1 [Compound L-2]	>100	–
CC(C)(C)[C@H](NC(=O)[C@H]1COC(=O)N1)c1nc(-c2ccc(-c3ccc(-c4c[nH]c([C@@H](NC(=O)[C@H]5COC(=O)N5)C(C)(C)C)n4)cc3)cc2)c[nH]1 [Compound L-9]	>10	–
CC(C)(C)[C@H](NC(=O)[C@@H]1CCC(=O)N1)c1nc(-c2ccc(-c3ccc(-c4c[nH]c([C@@H](NC(=O)[C@@H]5CCC(=O)N5)C(C)(C)C)n4)cc3)cc2)c[nH]1 [Compound L-10]	>10	–
CC(=O)N(C)C1(C(=O)N[C@H](c2nc(-c3ccc(-c4ccc(-c5c[nH]c([C@@H](NC(=O)C6(N(C)C(C)=O)CC6)C(C)(C)C)n5)cc4)cc3)c[nH]2)C(C)(C)C)CC1 [Compound L-11]	>100	–
CC(=O)N(C)C1(C(=O)N[C@H](c2nc(-c3ccc(-c4ccc(-c5c[nH]c([C@@H](NC(=O)C6(N(C)C(C)=O)CCC6)C(C)(C)C)n5)cc4)cc3)c[nH]2)C(C)(C)C)CCC1 [Compound L-12]	>100	–
CN(C(=O)OC(C)(C)C)C1(C(=O)N[C@H](c2nc(-c3ccc(-c4ccc(-c5c[nH]c([C@@H](NC(=O)C6(N(C)C(=O)OC(C)(C)C)CC6)C(C)(C)C)n5)cc4)cc3)c[nH]2)C(C)(C)C)CC1 [Compound L-13]	>100	–
CN(C(=O)OC(C)(C)C)C1(C(=O)N[C@H](c2nc(-c3ccc(-c4ccc(-c5c[nH]c([C@@H](NC(=O)C6(N(C)C(=O)OC(C)(C)C)CCC6)C(C)(C)C)n5)cc4)cc3)c[nH]2)C(C)(C)C)CCC1 [Compound L-14]	>100	–
CC(C)(C)OC(=O)N1CCC[C@]1(C)C(=O)N[C@H](c1nc(-c2ccc(-c3ccc(-c4c[nH]c([C@@H](NC(=O)[C@@]5(C)CCCN5C(=O)OC(C)(C)C)C(C)(C)C)n4)cc3)cc2)c[nH]1)C(C)(C)C [Compound L-15]	>100	–
CC(C)(C)OC(=O)N1CCCC[C@@H]1C(=O)N[C@H](c1nc(-c2ccc(-c3ccc(-c4c[nH]c([C@@H](NC(=O)[C@H]5CCCCN5C(=O)OC(C)(C)C)C(C)(C)C)n4)cc3)cc2)c[nH]1)C(C)(C)C [Compound L-16]	>100	–
CC(C)(C)OC(=O)N1CCCC[C@H]1C(=O)N[C@H](c1nc(-c2ccc(-c3ccc(-c4c[nH]c([C@@H](NC(=O)[C@@H]5CCCCN5C(=O)OC(C)(C)C)C(C)(C)C)n4)cc3)cc2)c[nH]1)C(C)(C)C [Compound L-17]	>100	–
COC(=O)N1CCC[C@@]1(C)C(=O)N[C@H](c1nc(-c2ccc(-c3ccc(-c4c[nH]c([C@@H](NC(=O)[C@]5(C)CCCN5C(=O)OC)C(C)(C)C)n4)cc3)cc2)c[nH]1)C(C)(C)C [Compound L-23]	>100	–
CCC(CC)(NC(=O)OC(C)(C)C)C(=O)N[C@H](c1nc(-c2ccc(-c3ccc(-c4c[nH]c([C@@H](NC(=O)C(CC)(CC)NC(=O)OC(C)(C)C)C(C)(C)C)n4)cc3)cc2)c[nH]1)C(C)(C)C [Compound L-24]	>100	–
CC(C)(C)[C@H](NC(=O)CN1CCOC1=O)c1nc(-c2ccc(-c3ccc(-c4c[nH]c([C@@H](NC(=O)CN5CCOC5=O)C(C)(C)C)n4)cc3)cc2)c[nH]1 [Compound L-25]	>10	–
CC(C)(C)[C@H](NC(=O)C1(N2CCOC2=O)CC1)c1nc(-c2ccc(-c3ccc(-c4c[nH]c([C@@H](NC(=O)C5(N6CCOC6=O)CC5)C(C)(C)C)n4)cc3)cc2)c[nH]1 [Compound L-26]	>100	–
CC(CF)(CF)OC(=O)NC1(C(=O)N[C@H](c2nc(-c3ccc(-c4ccc(-c5c[nH]c([C@@H](NC(=O)C6(NC(=O)OC(C)(CF)CF)CC6)C(C)(C)C)n5)cc4)cc3)c[nH]2)C(C)(C)C)CC1 [Compound L-27]	>100	–
CC(C)(C)[C@H](NC(=O)C1(OC(=O)N2CCCCC2)CC1)c1nc(-c2ccc(-c3ccc(-c4c[nH]c([C@@H](NC(=O)C5(OC(=O)N6CCCCC6)CC5)C(C)(C)C)n4)cc3)cc2)c[nH]1 [Compound L-28]	>100	–
CN(C)C(=O)OC1(C(=O)N[C@H](c2nc(-c3ccc(-c4ccc(-c5c[nH]c([C@@H](NC(=O)C6(OC(=O)N(C)C)CC6)C(C)(C)C)n5)cc4)cc3)c[nH]2)C(C)(C)C)CC1 [Compound L-29]	>100	–
COC(=O)N(C)C1(C(=O)N[C@H](c2nc(-c3ccc(-c4ccc(-c5c[nH]c([C@@H](NC(=O)C6(N(C)C(=O)OC)CC6)C6(C)CC6)n5)cc4)cc3)c[nH]2)C2(C)CC2)CC1 [Compound L-30]	>100	–
CC(C)(C)[C@H](NC(=O)C1(N2CCOCC2)CC1)c1nc(-c2ccc(-c3ccc(-c4c[nH]c([C@@H](NC(=O)C5(N6CCOCC6)CC5)C(C)(C)C)n4)cc3)cc2)c[nH]1 [Compound L-31]	>100	–
CC(C)(C)[C@H](NC(=O)C1(n2cncn2)CC1)c1nc(-c2ccc(-c3ccc(-c4c[nH]c([C@@H](NC(=O)C5(n6cncn6)CC5)C(C)(C)C)n4)cc3)cc2)c[nH]1 [Compound L-33]	>100	–
CCN(CC(F)(F)F)C(=O)C(=O)N[C@H](c1nc(-c2ccc(-c3ccc(-c4c[nH]c([C@@H](NC(=O)C(=O)N(CC)CC(F)(F)F)C5CC5)n4)cc3)cc2)c[nH]1)C1CC1 [Compound L-35]	>100	–
CC(C)N(C(=O)C(=O)N[C@H](c1nc(-c2ccc(-c3ccc(-c4c[nH]c([C@@H](NC(=O)C(=O)N(C(C)C)C5CC5)C5CC5)n4)cc3)cc2)c[nH]1)C1CC1)C1CC1 [Compound L-36]	>100	–
O=C(N[C@H](c1nc(-c2ccc(-c3ccc(-c4c[nH]c([C@@H](NC(=O)C(=O)N5CCC(F)(F)CC5)C5CC5)n4)cc3)cc2)c[nH]1)C1CC1)C(=O)N1CCC(F)(F)CC1 [Compound L-37]	>100	–
